From ChEMBL document CHEMBL4130368, “Thienopyrimidine derivatives exert their anticancer efficacy via apoptosis induction, oxidative stress and mitotic catastrophe” (Eur J Med Chem, 2017)
Active and inactive are the calls of the source. The calls are words filed in the database; no cut-off is given here.

Experiments:
[1] = system: A2780; test: Induction of apoptosis in human A2780 cells assessed as condensation of nuclei at 0.5 to 2 uM measured after overnight incubation by DAPI-staining based microscopy; assay type: functional, cell-based
[2] = system: CHO; test: Cytotoxicity against CHO cells assessed as reduction in cell survival after 72 hrs by MTT assay; assay type: ADME, cell-based; conditions: Cricetulus griseus
[3] = system: HCT-116; test: Cell cycle arrest in human HCT116 cells assessed as accumulation at G2 phase at 1 uM measured after overnight incubation by propidium iodide staining-based flow cytometry (reference value: 24%); assay type: functional
[4] = system: HCT-116; test: Antiproliferative activity against bak deficient human HCT116 cells after 72 hrs by MTT assay; assay type: functional, cell-based; conditions: HCT-116, 72 h
[5] = system: 2008; test: Induction of apoptosis in human OV2008 cells assessed as late apoptotic cells at 1 uM measured after overnight incubation by mitotracker red/alexa fluor-488 Annexin V staining-based flow cytometry (reference value: 0.255%); assay type: functional
[6] = system: 2008; test: Inhibition of colony formation in human OV2008 cells at 1 to 2 uM after 24 hrs by crystal violet dye based assay; assay type: functional, cell-based
[7] = system: A2780; test: Cell cycle arrest in human A2780 cells assessed as accumulation at G1 phase at 1 uM measured after overnight incubation by propidium iodide staining-based flow cytometry (reference value: 51.1%); assay type: functional
[8] = system: A2780; test: Cell cycle arrest in human A2780 cells assessed as accumulation at G2 phase at 2 uM measured after overnight incubation by propidium iodide staining-based flow cytometry (reference value: 24.9%); assay type: functional
[9] = system: HCT-116; test: Induction of cellular oxidative stress in human HCT116 cells assessed as increase in ROS levels at 0.5 to 4 uM after 48 hrs by DCFDA dye-based fluorescence microscopic method; assay type: functional, cell-based
[10] = system: HCT-116; test: Induction of apoptosis in human HCT116 cells assessed as viable cells at 2 uM measured after overnight incubation by mitotracker red/alexa fluor-488 Annexin V staining-based flow cytometry (reference value: 89%); assay type: functional; conditions: read-out: Activity
[11] = system: HCT-116; test: Induction of apoptosis in human HCT116 cells assessed as cell shrinkage at 0.5 to 2 uM measured after overnight incubation by DAPI-staining based microscopy; assay type: functional
[12] = system: HCT-116; test: Cell cycle arrest in human HCT116 cells assessed as accumulation at […] at 1 uM measured after overnight incubation by propidium iodide staining-based flow cytometry (reference value: 9.70%); assay type: functional
[13] = system: A2780; test: Cell cycle arrest in human A2780 cells assessed as accumulation at G2 phase at 1 uM measured after overnight incubation by propidium iodide staining-based flow cytometry (reference value: 24.9%); assay type: functional
[14] = system: HCT-116; test: Induction of apoptosis in human HCT116 cells assessed as early apoptotic cells at 2 uM measured after overnight incubation by mitotracker red/alexa fluor-488 Annexin V staining-based flow cytometry (reference value: 8.36%); assay type: functional
[15] = system: A2780; test: Induction of apoptosis in human A2780 cells assessed as viable cells at 2 uM measured after overnight incubation by mitotracker red/alexa fluor-488 Annexin V staining-based flow cytometry (reference value: 78.1%); assay type: functional; conditions: read-out: Activity
[16] = system: 2008; test: Induction of cellular oxidative stress in human OV2008 cells assessed as increase in ROS levels at 0.5 to 4 uM after 48 hrs by DCFDA dye-based fluorescence microscopic method; assay type: functional, cell-based
[17] = Selectivity index, ratio of IC50 for CHO cells to IC50 for human HCT15 cells; assay type: toxicity; conditions: Chinese hamster (CHO cells), CHO cells versus HCT15 cells, read-out: Ratio IC50
[18] = system: HCT-116; test: Antiproliferative activity against bax deficient human HCT116 cells assessed after 72 hrs by MTT assay; assay type: functional, cell-based; conditions: HCT-116, 72 h
[19] = system: HCT-15; test: Antiproliferative activity against human HCT15 cells after 72 hrs by MTT assay; assay type: functional, cell-based; conditions: HCT-15, 72 h
[20] = system: HCT-116; test: Induction of morphological changes in human HCT116 cells at 0.1 to 3 uM after 68 hrs by microscopic method; assay type: functional, cell-based
[21] = system: 2008; test: Induction of apoptosis in human OV2008 cells assessed as early apoptotic cells at 2 uM measured after overnight incubation by mitotracker red/alexa fluor-488 Annexin V staining-based flow cytometry (reference value: 12.9%); assay type: functional
[22] = system: 2008; test: Induction of apoptosis in human OV2008 cells assessed as condensation of nuclei at 0.5 to 2 uM measured after overnight incubation by DAPI-staining based microscopy; assay type: functional, cell-based
[23] = system: HCT-116; test: Cell cycle arrest in human HCT116 cells assessed as accumulation at subG1 phase at 1 uM measured after overnight incubation by propidium iodide staining-based flow cytometry (reference value: 0.154%); assay type: functional
[24] = system: HCT-116; test: Induction of apoptosis in human HCT116 cells assessed as late apoptotic cells at 2 uM measured after overnight incubation by mitotracker red/alexa fluor-488 Annexin V staining-based flow cytometry (reference value: 0%); assay type: functional
[25] = system: HCT-116; test: Cell cycle arrest in human HCT116 cells assessed as accumulation at G2 phase at 2 uM measured after overnight incubation by propidium iodide staining-based flow cytometry (reference value: 24%); assay type: functional
[26] = system: A2780; test: Induction of apoptosis in human A2780 cells assessed as necrotic cells at 2 uM measured after overnight incubation by mitotracker red/alexa fluor-488 Annexin V staining-based flow cytometry (reference value: 9.94%); assay type: functional
[27] = system: A2780; test: Induction of apoptosis in human A2780 cells assessed as early apoptotic cells at 1 uM measured after overnight incubation by mitotracker red/alexa fluor-488 Annexin V staining-based flow cytometry (reference value: 11.9%); assay type: functional
[28] = system: 2008; test: Induction of apoptosis in human OV2008 cells assessed as late apoptotic cells at 2 uM measured after overnight incubation by mitotracker red/alexa fluor-488 Annexin V staining-based flow cytometry (reference value: 0.255%); assay type: functional
[29] = system: A2780; test: Induction of apoptosis in human A2780 cells assessed as early apoptotic cells at 2 uM measured after overnight incubation by mitotracker red/alexa fluor-488 Annexin V staining-based flow cytometry (reference value: 11.9%); assay type: functional
[30] = system: A2780; test: Induction of morphological changes in human A2780 cells at 0.1 to 3 uM after 68 hrs by microscopic method; assay type: functional, cell-based
[31] = system: A2780; test: Induction of mitotic catastrophe in human A2780 cells assessed as multinuclear changes at 0.5 to 2 uM measured after overnight incubation by DAPI-staining based microscopy; assay type: functional, cell-based
[32] = system: HCT-116; test: Antiproliferative activity against dko deficient human HCT116 cells after 72 hrs by MTT assay; assay type: functional, cell-based; conditions: HCT-116, 72 h
[33] = system: A2780; test: Induction of apoptosis in human A2780 cells assessed as late apoptotic cells at 2 uM measured after overnight incubation by mitotracker red/alexa fluor-488 Annexin V staining-based flow cytometry (reference value: 0.015%); assay type: functional
[34] = Selectivity index, ratio of IC50 for CHO cells to IC50 for human GBM10 cells; assay type: toxicity; conditions: Chinese hamster (CHO cells), CHO cells versus GBM10 cells, read-out: Ratio IC50
[35] = system: 2008; test: Cell cycle arrest in human OV2008 cells assessed as accumulation at subG1 phase at 2 uM measured after overnight incubation by propidium iodide staining-based flow cytometry (reference value: 2.64%); assay type: functional
[36] = system: A2780; test: Induction of apoptosis in human A2780 cells assessed as necrotic cells at 1 uM measured after overnight incubation by mitotracker red/alexa fluor-488 Annexin V staining-based flow cytometry (reference value: 9.94%); assay type: functional

COc1ccc(-c2nc(O)c3c4c(sc3n2)CCCC4)cc1
Activity [1]: Active | IC50 [2]: 14000 nM | Activity [3]: 47.1% | IC50 [4]: 1400 nM | Activity [5]: 0.245% | inhibition [6]: Dose-dependent effect | Activity [7]: 20.2% | Activity [8]: 63.5% | Activity [9]: Active | viability at 2 µM [10]: 71.1% | Activity [11]: Active | Activity [12]: 12.3% | Activity [13]: 57.8% | Activity [14]: 25.9% | viability at 2 µM [15]: 42.9% | Activity [16]: Active | selectivity ratio [17]: 17 to 28 | IC50 [18]: 1200 nM | IC50 [19]: 700 nM | Activity [20]: Active | Activity [21]: 22.2% | Activity [22]: Active | Activity [23]: 0.087% | Activity [24]: 0% | Activity [25]: 54.8% | Activity [26]: 5.77% | Activity [27]: 25.8% | Activity [28]: 0.057% | Activity [29]: 51.2% | Activity [30]: Active | Activity [31]: Active | IC50 [32]: 1400 nM | Activity [33]: 0.051% | selectivity ratio [34]: 17 to 28 | Activity [35]: 1.29% | Activity [36]: 0.421%
